Like-named read-outs stand apart in the source and are kept apart here.
What was measured:
[1] = target: T1, F1F0-ATPase (Bos taurus, UniProt P13621); test: Inhibition of F1F0-ATPase activity in synthesizing ATP; assay type: biochemical; conditions: inhibition of ATP synthesis by F1F0-ATPase; read-out: ATP Syn IC50
T1 construct: from tissue

[2] = system: Ramos cells; test: Cytotoxicity in Ramos cells; assay type: cell-based; conditions: cytotoxicity in Ramos cells, read-out: Ramos Cell EC50

SMILES | IC50 [1] [µM] | EC50 [2] [µM] | EC50 ([2]; Homo sapiens) [µM]
COc1ccc(C(=O)/N=C(\Nc2cc(-c3ccc(F)cc3)n[nH]2)NC(C)C)c(F)c1 [Compound A-374] | < 10 | < 10 | –
O=C(/N=C(\Nc1cc(C(F)(F)F)[nH]n1)NC1CCCC1)c1ccc(Cl)cc1 [Compound A-122] | < 10 | – | < 10
O=C(/N=C(\Nc1cc(C(F)(F)F)[nH]n1)NC1CCC(F)(F)CC1)c1ccc(C(F)(F)F)cc1 [Compound A-561] | < 10 | < 10 | –
CC(C)(C)c1n[nH]c(NC(=NC(=O)c2ccc(C(F)(F)F)cc2)NCc2ccc(F)cc2Cl)c1F [Compound A-335] | < 10 | – | < 10
CCC(C)CN/C(=N/C(=O)c1ccc(Cl)c(F)c1)Nc1cc(-c2cc(F)cc(F)c2)n[nH]1 (stereo not drawn) [Compound A-346] | < 10 | < 10 | –
CCC(C)(C)N/C(=N/C(=O)c1ccc(C(F)(F)F)cc1)Nc1cc(C(F)(F)F)n[nH]1 [Compound A-93] | < 10 | – | < 10
COc1ccc(-c2cc(NC(=NC(=O)c3ccc(Cl)c(F)c3)NC3CCOCC3)n[nH]2)cc1 [Compound A-462] | > 10 | – | > 10
CC(C)N/C(=N/C(=O)c1ccc(Cl)cc1)Nc1cc(-c2cc(F)cc(F)c2)n[nH]1 [Compound A-230] | < 10 | < 10 | –
O=C(N=C(Nc1cc(F)cc(Cl)c1)Nc1cc(-c2cccc(Cl)c2)[nH]n1)c1ccc(F)c(F)c1 [Compound A-442] | < 10 | – | < 10
O=C(/N=C(\Nc1cc(C(F)(F)F)n[nH]1)NC1CCC1)c1ccc(Cl)cc1 [Compound A-108] | < 10 | – | < 10
CC(C)N/C(=N/C(=O)c1ccc(F)c(F)c1)Nc1cc(-c2cc(F)cc(Cl)c2)n[nH]1 [Compound A-286] | < 10 | < 10 | –
O=C(/N=C(/NCc1ccc(F)c(Cl)c1)Nc1cc(C(F)F)[nH]n1)c1ccc(F)c(F)c1 [Compound A-61] | < 10 | – | > 10
O=C(/N=C(\Nc1cc(C(F)(F)F)[nH]n1)NC1CCC(O)CC1)c1ccc(Cl)c(F)c1 (stereo not drawn) [Compound A-557] | > 10 | > 10 | –
Cc1cc(N/C(=N\C(=O)c2ccc(F)c(F)c2)Nc2cc(F)cc(Cl)c2)n[nH]1 [Compound A-45] | < 10 | – | > 10
Cc1ccc(CN/C(=N/C(=O)c2ccc(F)cc2)Nc2cc(C(F)(F)F)[nH]n2)o1 [Compound A-414] | < 10 | < 10 | –
CCC(C)N/C(=N/C(=O)c1ccc(F)cc1)Nc1cc(-c2ccc(F)cc2)n[nH]1 (stereo not drawn) [Compound A-206] | < 10 | – | < 10
COC[C@H](C)N/C(=N/C(=O)c1ccc(C(F)(F)F)cc1)Nc1cc(-c2ccc(OC)c(F)c2)n[nH]1 [Compound A-572] | < 10 | > 10 | –
Cc1cc(C(=O)/N=C(\Nc2cc(-c3ccc(F)cc3)n[nH]2)NC(C)(C)C)ccn1 [Compound A-341] | < 10 | < 10 | –
CC(C)(CO)N/C(=N/C(=O)c1ccc(F)cc1)Nc1cc(C(F)(F)F)[nH]n1 [Compound A-531] | < 10 | > 10 | –
O=C(/N=C(\Nc1cc(-c2ccccc2)[nH]n1)NC1CCOCC1)c1ccc(Cl)c(F)c1 [Compound A-140] | > 10 | > 10 | –
CC(C)CN/C(=N/C(=O)c1ccc(F)cc1)Nc1cc(-c2cc(F)cc(F)c2)n[nH]1 [Compound A-244] | < 10 | < 10 | –
CCOC[C@H](C)N/C(=N/C(=O)c1ccc(F)c(F)c1)Nc1cc(-c2cc(F)cc(Cl)c2)n[nH]1 [Compound A-247] | < 10 | – | < 10
N#Cc1cccc(C(=O)/N=C(\Nc2cc(-c3ccc(Cl)cc3)n[nH]2)NC2CCC2)c1 [Compound A-307] | < 10 | < 10 | –

SMILES | IC50 [1] [µM] | EC50 [2] [µM] | EC50 ([2]; Homo sapiens) [µM]
C[C@@H](N/C(=N\C(=O)c1ccc(Cl)c(F)c1)Nc1cc(C(F)(F)F)n[nH]1)C1CCCCC1 [Compound A-117] | < 10 | – | < 10
CC(C)(C)N/C(=N/C(=O)c1ccc(C(F)(F)F)cc1)Nc1cc(-c2ccc(Cl)cc2)[nH]n1 [Compound A-138] | < 10 | < 10 | –
Cc1ccc(-c2cc(NC(=NC(=O)c3ccc(C(F)(F)F)cc3)NC(C)(C)C)[nH]n2)cc1F [Compound A-434] | < 10 | – | > 10
CC(C)N/C(=N/C(=O)c1cccc(C#N)c1)Nc1cc(-c2cc(F)cc(F)c2)n[nH]1 [Compound A-312] | < 10 | < 10 | –
CCOCC(C)NC(=NC(=O)c1ccc(F)cc1)Nc1cc(-c2ccc(F)cc2)n[nH]1 (stereo not drawn) [Compound A-269] | < 10 | < 10 | –
CCc1ccc(-c2cc(N/C(=N\C(=O)c3ccc(F)c(F)c3)NC(C)(C)C)[nH]n2)cc1 [Compound A-431] | < 10 | < 10 | –
COc1ccccc1CN/C(=N/C(=O)c1ccc(C(F)(F)F)cc1)Nc1cc(C(F)(F)F)[nH]n1 [Compound A-424] | < 10 | < 10 | –
CC(C)NC(=NC(=O)c1ccc(F)cc1)Nc1cc(-c2ccc(F)cc2)[nH]n1 [Compound A-512] | < 10 | – | < 10
CC(C)N/C(=N/C(=O)c1ccc(F)c(F)c1)Nc1cc(C(F)(F)F)n[nH]1 [Compound A-98] | < 10 | – | < 10
CCC(C)(C)N/C(=N/C(=O)c1ccc(F)c(F)c1)Nc1cc(C(F)(F)F)n[nH]1 [Compound A-101] | < 10 | – | < 10
CC(C)(C)CN/C(=N/C(=O)c1ccc(Cl)cc1)Nc1cc(C(F)F)[nH]n1 [Compound A-69] | < 10 | – | < 10
O=C(/N=C(\Nc1cc(C(F)(F)F)[nH]n1)NC1CCOCC1)c1ccc(Cl)cc1 [Compound A-124] | < 10 | – | > 10
CCC(C)N/C(=N/C(=O)c1ccc(F)cc1)Nc1cc(-c2ccc(Cl)cc2)n[nH]1 (stereo not drawn) [Compound A-209] | < 10 | – | < 10
O=C(/N=C(\Nc1cc(C(F)(F)F)n[nH]1)NC1CCCOC1)c1ccc(Cl)cc1 (stereo not drawn) [Compound A-110] | < 10 | – | < 10
O=C(/N=C(/NCC1CCO1)Nc1cc(-c2ccc(F)cc2)n[nH]1)c1ccc(F)c(F)c1 (stereo not drawn) [Compound A-266] | < 10 | < 10 | –
CCc1cc(C(=O)N=C(NCC(C)C)Nc2cc(-c3ccc(F)cc3)n[nH]2)ccn1 [Compound A-176] | < 10 | – | < 10
O=C(N=C(Nc1cc(C(F)(F)F)n[nH]1)NC1CCCC1)c1ccc(F)cc1 [Compound A-548] | < 10 | – | < 10
COc1cccc(C(=O)/N=C(/NCC(C)C)Nc2cc(-c3ccc(Cl)cc3)[nH]n2)c1 [Compound A-169] | < 10 | < 10 | –
COCC(C)N/C(=N/C(=O)c1ccc(C(F)(F)F)cc1)Nc1cc(C(F)(F)F)n[nH]1 (stereo not drawn) [Compound A-97] | < 10 | – | < 10
O=C(/N=C(\Nc1cc(-c2cc(F)cc(F)c2)n[nH]1)NC1CC1)c1ccc(F)c(F)c1 [Compound A-198] | < 10 | < 10 | –
CC(C)(C)CNC(=NC(=O)c1ccc(F)c(F)c1)Nc1cc(-c2ccc(F)cc2)n[nH]1 [Compound A-522] | < 10 | – | < 10
CC(C)OCCCNC(=NC(=O)c1ccc(Cl)c(F)c1)Nc1cc(-c2cc(F)cc(F)c2)n[nH]1 [Compound A-344] | < 10 | – | < 10

From US9139532B2, “Pyrazolyl guanidine F1F0-atpase inhibitors and therapeutic uses thereof” (Lycera Corporation, priority 2010, dated 2015)
